Test results published in ChEMBL document CHEMBL1151836, “Citronamides A and B, tetrapeptides from the Australian sponge Citronia astra” (J Nat Prod, 2009).
Values after ≈ are worked out from the molar mass of the structure shown. Active and inactive are the calls of the source. The calls are words filed in the database; no cut-off is given here.

Experiments:
[1] = tested on: Saccharomyces cerevisiae; assay: Antibacterial activity against Saccharomyces cerevisiae after 19 to 20 hrs by agar hole punch diffusion assay; format: functional
[2] = tested on: HeLa; assay: Cytotoxicity against human HeLa cells upto 120 uM after 72 hrs by alamar blue assay; format: functional, cell-based
[3] = tested on: HEK293; assay: Cytotoxicity against HEK293 cells upto 120 uM after 72 hrs by alamar blue assay; format: cell-based; settings: human, hek293, 72 h
[4] = tested on: Trypanosoma brucei; assay: Antitrypanosomal activity against Trypanosoma brucei BS427 upto 120 uM after 48 hrs by alamar blue assay; format: functional, organism-based
[5] = tested on: Staphylococcus; assay: Antibacterial activity against Staphylococcus albus epidermis strain at 800 ug/mL after 19 to 20 hrs by agar hole punch diffusion assay; format: functional, organism-based
[6] = tested on: Plasmodium falciparum; assay: Antimalarial activity against chloroquine-resistant Plasmodium falciparum Dd2 at 120 uM after 72 hrs by DAPI stain; format: functional
[7] = tested on: Escherichia coli; assay: Antibacterial activity against Escherichia coli K-12 after 19 to 20 hrs by agar hole punch diffusion assay; format: functional

Q: Which results are given for `CC[C@@H](C)[C@@H](NC(=O)[C@@H](NC(=O)[C@H](NC(=O)CCCCC(N)Cc1ccc(OC)cc1)[C@@H](O[C@@H]1O[C@@H](C(=O)O)[C@@H](O)[C@H](OC(N)=O)[C@H]1O)c1c[nH]c(=O)[nH]1)[C@@H](C)CC)C(=O)O` (some centres not stated) [CITRONAMIDE A]?
A: MIC [1]: 8 µg/mL (≈ 9.24 µM); Activity [2]: inactive; Activity [3]: Not Active; Activity [4]: inactive; Activity [5]: inactive; Activity [6]: 24%; MIC [7]: 80 µg/mL (≈ 92.4 µM)
